# Experimental data published in article PMC10975543, “Redox Reactivity of Nonsymbiotic Phytoglobins towards Nitrite” (Molecules, 2024).
# Biological target: T1, AtHb3 (Arabidopsis thaliana, UniProt Q67XG0)
# T1 construct: gene GLB3; recombinant in E. coli BL21(DE3), N-terminal 8xHis-MBP tag, TEV cleaved; class 3 truncated Hb; ferric (met) heme form
# T1 sequence (Q67XG0 1-175): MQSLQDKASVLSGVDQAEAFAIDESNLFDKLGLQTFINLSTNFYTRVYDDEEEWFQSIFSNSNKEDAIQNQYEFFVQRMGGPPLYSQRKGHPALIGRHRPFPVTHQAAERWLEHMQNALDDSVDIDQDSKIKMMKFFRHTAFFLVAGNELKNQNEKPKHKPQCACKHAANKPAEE
# Assay: UV-vis titration of the Soret band at […] nm
# Type: binding
smiles,measurement,value
O=NO [nitrite],Kd,1500 ± 500 µM
